Test results reported in the supplement of paper PMC10307832.

Tests used:
Experiment in all cases: relative viability (nuclei count vs DMSO), 5 days (fraction); higher = more cells survive
[1] = tested on: LCLC-103H
How it was run: (§1)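 Each reported value is a median over duplicate plates. It expresses relative viability: treated-well nuclei count divided by vehicle-well nuclei count. Lung cancer cell lines in 1536-well plates were dosed by pin tool a day after seeding, alone with one drug or with a fixed anchor-drug dose plus five library-drug doses (not always all listed) in √10 steps, and nuclei were counted after 5 days.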

[2] = tested on: Calu-6
How it was run: as §1

[3] = tested on: UMC-11
How it was run: as §1

[4] = tested on: NCI-H1703
How it was run: as §1

[5] = tested on: HCC-15
How it was run: as §1

[6] = tested on: NCI-H1299
How it was run: as §1

[7] = tested on: IA-LM
How it was run: as §1

[8] = tested on: A549
How it was run: as §1

[9] = tested on: EBC-1
How it was run: as §1

[10] = tested on: NCI-H1623
How it was run: as §1

[11] = tested on: NCI-H522
How it was run: as §1

[12] = tested on: NCI-H1648
How it was run: as §1

## O=C(O)c1ccc(-c2c[nH]c3ncc(-c4ccccc4)cc23)cc1C1CCCC1 + COc1cc2c(Oc3ccc(NC(=O)C4(C(=O)Nc5ccc(F)cc5)CC4)cc3F)ccnc2cc1OCCCN1CCOCC1 [Foretinib] (partner 0.25 µM)
[1]; first compound 0.04 µM
  relative viability: 0.702
[1]; first compound 0.1265 µM
  relative viability: 0.793
[1]; first compound 0.4 µM
  relative viability: 0.613
[1]; first compound 1.265 µM
  relative viability: 0.507
[2]; first compound 0.04 µM
  relative viability: 0.872
[2]; first compound 0.1265 µM
  relative viability: 0.904
[2]; first compound 0.4 µM
  relative viability: 0.815
[2]; first compound 1.265 µM
  relative viability: 0.706
[3]; first compound 0.04 µM
  relative viability: 1.01
[3]; first compound 0.1265 µM
  relative viability: 1.02
[3]; first compound 0.4 µM
  relative viability: 0.982
[3]; first compound 1.265 µM
  relative viability: 0.77
[4]; first compound 0.04 µM
  relative viability: 0.381
[4]; first compound 0.1265 µM
  relative viability: 0.313
[4]; first compound 0.4 µM
  relative viability: 0.348
[4]; first compound 1.265 µM
  relative viability: 0.372
[5]; first compound 0.04 µM
  relative viability: 1.11
[5]; first compound 0.1265 µM
  relative viability: 1.04
[5]; first compound 0.4 µM
  relative viability: 0.92
[5]; first compound 1.265 µM
  relative viability: 0.678
[6]; first compound 0.04 µM
  relative viability: 1.12
[6]; first compound 0.1265 µM
  relative viability: 1.14
[6]; first compound 0.4 µM
  relative viability: 1.04
[6]; first compound 1.265 µM
  relative viability: 0.956
[7]; first compound 0.04 µM
  relative viability: 1.23
[7]; first compound 0.1265 µM
  relative viability: 1.25
[7]; first compound 0.4 µM
  relative viability: 1.15
[7]; first compound 1.265 µM
  relative viability: 0.864
[8]; first compound 0.04 µM
  relative viability: 0.944
[8]; first compound 0.1265 µM
  relative viability: 1.07
[8]; first compound 0.4 µM
  relative viability: 1.07
[8]; first compound 1.265 µM
  relative viability: 0.628
[9]; first compound 0.04 µM
  relative viability: 0.112
[9]; first compound 0.1265 µM
  relative viability: 0.123
[9]; first compound 0.4 µM
  relative viability: 0.119
[9]; first compound 1.265 µM
  relative viability: 0.101
[10]; first compound 0.04 µM
  relative viability: 0.859
[10]; first compound 0.1265 µM
  relative viability: 0.747
[10]; first compound 0.4 µM
  relative viability: 0.835
[10]; first compound 1.265 µM
  relative viability: 0.798

## O=C(O)c1ccc(-c2c[nH]c3ncc(-c4ccccc4)cc23)cc1C1CCCC1 + COc1cccc2cc(-c3nc([C@H]4CC[C@H](C(=O)O)CC4)n4ncnc(N)c34)[nH]c12 [OSI-027] (partner 0.5 µM)
[1]; first compound 0.04 µM
  relative viability: 0.444
[1]; first compound 0.1265 µM
  relative viability: 0.554
[1]; first compound 0.4 µM
  relative viability: 0.389
[1]; first compound 1.265 µM
  relative viability: 0.452
[3]; first compound 0.04 µM
  relative viability: 0.482
[3]; first compound 0.1265 µM
  relative viability: 0.547
[3]; first compound 0.4 µM
  relative viability: 0.46
[3]; first compound 1.265 µM
  relative viability: 0.375
[5]; first compound 0.04 µM
  relative viability: 0.807
[5]; first compound 0.1265 µM
  relative viability: 0.813
[5]; first compound 0.4 µM
  relative viability: 0.633
[5]; first compound 1.265 µM
  relative viability: 0.399
[11]; first compound 0.04 µM
  relative viability: 0.756
[11]; first compound 0.1265 µM
  relative viability: 0.74
[11]; first compound 0.4 µM
  relative viability: 0.56
[11]; first compound 1.265 µM
  relative viability: 0.775
[10]; first compound 0.04 µM
  relative viability: 0.4
[10]; first compound 0.1265 µM
  relative viability: 0.455
[10]; first compound 0.4 µM
  relative viability: 0.449
[10]; first compound 1.265 µM
  relative viability: 0.432
[12]; first compound 0.04 µM
  relative viability: 0.245
[12]; first compound 0.1265 µM
  relative viability: 0.246
[12]; first compound 0.4 µM
  relative viability: 0.254
[12]; first compound 1.265 µM
  relative viability: 0.239

## O=C(O)c1ccc(-c2c[nH]c3ncc(-c4ccccc4)cc23)cc1C1CCCC1 + Cc1cc(Nc2cc(N3CCN(C)CC3)nc(Sc3ccc(NC(=O)C4CC4)cc3)n2)n[nH]1 [Tozasertib] (partner 0.1 µM)
[1]; first compound 0.04 µM
  relative viability: 0.538
[1]; first compound 0.1265 µM
  relative viability: 0.552
[1]; first compound 0.4 µM
  relative viability: 0.4
[1]; first compound 1.265 µM
  relative viability: 0.392
[3]; first compound 0.04 µM
  relative viability: 0.189
[3]; first compound 0.1265 µM
  relative viability: 0.197
[3]; first compound 0.4 µM
  relative viability: 0.199
[3]; first compound 1.265 µM
  relative viability: 0.191
[5]; first compound 0.04 µM
  relative viability: 0.403
[5]; first compound 0.1265 µM
  relative viability: 0.502
[5]; first compound 0.4 µM
  relative viability: 0.307
[5]; first compound 1.265 µM
  relative viability: 0.151
[11]; first compound 0.04 µM
  relative viability: 0.537
[11]; first compound 0.1265 µM
  relative viability: 0.654
[11]; first compound 0.4 µM
  relative viability: 0.579
[11]; first compound 1.265 µM
  relative viability: 0.498
[10]; first compound 0.04 µM
  relative viability: 0.421
[10]; first compound 0.1265 µM
  relative viability: 0.488
[10]; first compound 0.4 µM
  relative viability: 0.481
[10]; first compound 1.265 µM
  relative viability: 0.398
[12]; first compound 0.04 µM
  relative viability: 0.545
[12]; first compound 0.1265 µM
  relative viability: 0.635
[12]; first compound 0.4 µM
  relative viability: 0.439
[12]; first compound 1.265 µM
  relative viability: 0.378
